Where “and” joins values, the source holds several entries; their conditions need not be identical. Equal entries are not always repeated.
Assay: Pygas-water partition coefficient determination (simulated pygas / de-ionized water, HPLC-MS)
Assay type: physicochemical
Conditions: for [HTMPOH] (ppm) in Undiluted Phase, Average / [sBuPDA] (ppm) in Undiluted Phase, Average / [HTMPO] (ppm) in Undiluted Phase, Average: average of 3 trials ± standard uncertainty; for [HTMPOH] (ppm) in Undiluted Phase / [sBuPDA] (ppm) in Undiluted Phase / [HTMPO] (ppm) in Undiluted Phase: individual trials 1-3; for Partition Ratio (pygas/aqueous): simulated pygas vs de-ionized water, ± standard uncertainty; for [HTMPO] (ppm) in Undiluted Phase: inhibitor 1.0 wt % total
Method: Pygas-water partition coefficients are determined by measuring the concentration of a polymerization inhibitor in a pygas-water mixture. In some embodiments, a pygas from an actual process water sample is used as the pygas in the determination; in some such embodiments, an actual process water is used. In other embodiments, a simulated pygas is formed and water is added to the simulated pygas for the determination. For purposes of providing measurements related to the disclosures herein, a simulated pygas consisting essentially of a mixture of toluene, styrene, cyclohexane, n-hexane, and dicyclopentadiene is employed. Partition coefficient is determined by mixing equal volumes of de-ionized water and simulated pygas, then adding a potential polymerization inhibitor at a concentration range of about 0.1 wt % to 5 wt %, in some embodiments, followed by a period of vigorous mixing, then a period of standing undisturbed to allow the phases to separate; the relative concentration of a species in each phase determines the partition coefficient. For purposes of partition coefficients recited herein, the test is conducted at a target inhibitor concentration of 1 wt % (10,000 ppm) followed by vigorous mixing for 30 minutes, followed by allowing the mixture to stand substantially unperturbed for 30 minutes. The pygas and aqueous phases that result in the unperturbed mixture are separated and concentration of the potential polymerization inhibitor in each phase is quantified, for example by high performance liquid chromatography coupled with mass spectrometry analysis (HPLC-MS). The partition ratio, or partition coefficient, of the potential polymerization inhibitor between the pygas and aqueous phases is then calculated according to the formula
[formula] where P is the partition coefficient, [I]pygas is the concentration of the potential polymerization inhibitor in the pygas phase, and [I]aqueous is the concentration of potential polymerization inhibitor in the aqueous phase.
The partition ratio of the polymerization inhibitor […]-2,2,6,6-tetramethylpiperidinyl-1-oxyl (HTMPO) between pygas and aqueous phases was determined by the following procedure. HTMPO was added to a mixture of equal volumes of de-ionized water and simulated pyrolysis gasoline (pygas). The simulated pygas consisted of a mixture of toluene, styrene, cyclohexane, n-hexane, and dicyclopentadiene. The amounts of inhibitor and liquid phases used were such that the inhibitor was present at a total concentration of 1.0 wt % based on the weight of the combined phases.
The system consisting of the inhibitor, pygas phase, and aqueous phase was vigorously stirred for thirty minutes, after which time it was allowed to sit undisturbed for an additional thirty minutes. The immiscible pygas and aqueous phases were then separated.
A stock solution of known concentration of HTMPO in acetonitrile was diluted with water/acetonitrile to give five different solutions at concentrations spanning an appropriate working range of a high performance liquid chromatograph (HPLC) coupled to a mass spectrometer with an electrospray ionization (ESI) source. The five dilute solutions were analyzed as standards using HPLC-MS, and the areas of the peaks corresponding to HTMPO in these solutions were used to construct a calibration curve of peak area vs. concentration (mass fraction, ppm).
The pygas phase of unknown concentration of HTMPO, separated from the aqueous phase in the first part of the experiment, was diluted with water/acetonitrile to give a solution whose concentration was within the range of the calibration curve. The dilute pygas solution was analyzed by HPLC-MS, and the concentration of HTMPO in this pygas solution was calculated by interpolation of its HTMPO peak area into the calibration curve. The concentration of HTMPO in the original, undiluted pygas phase was calculated by applying the dilution factor to the interpolated concentration of the diluted solution. […]

CC1(C)CC(O)CC(C)(C)N1O [HTMPOH, 1,4-dihydroxy-2,2,6,6-tetramethylpiperidine]
[HTMPOH] (ppm) in Undiluted Phase, Average (Aqueous Phase): 2829.8 ± 79.0 ppm | [HTMPOH] (ppm) in Undiluted Phase (Aqueous Phase): 2807.5 ppm and 2764.3 ppm and 2917.6 ppm | Partition Ratio (pygas/aqueous) (HTMPOH): 0.0096 ± 0.0003 | [HTMPOH] (ppm) in Undiluted Phase, Average (Pygas Phase): 27.2 ± 0.6 ppm | [HTMPOH] (ppm) in Undiluted Phase (Pygas Phase): 27.8 ppm and 26.6 ppm and 27.2 ppm

CCC(C)Nc1ccc(NC(C)CC)cc1 (stereo not drawn) [sBuPDA, N,N′-di-sec-butyl-1,4-phenylenediamine]
[sBuPDA] (ppm) in Undiluted Phase, Average (Aqueous Phase): 0.29 ± 0.03 ppm | [sBuPDA] (ppm) in Undiluted Phase (Aqueous Phase): 0.29 ppm and 0.26 ppm and 0.32 ppm | [sBuPDA] (ppm) in Undiluted Phase, Average (Pygas Phase): 4075 ± 161.6 ppm | [sBuPDA] (ppm) in Undiluted Phase (Pygas Phase): 4218.2 ppm and 4109.2 ppm and 3900.2 ppm | Partition Ratio (pygas/aqueous) (sBuPDA): 14000 ± 2000

CC1(C)CC(O)CC(C)(C)N1[O] [HTMPO, 4-hydroxy-2,2,6,6-tetramethylpiperidinyl-1-oxyl]
[HTMPO] (ppm) in Undiluted Phase, Average (Aqueous Phase): 7410.8 ± 453.5 ppm | [HTMPO] (ppm) in Undiluted Phase (Aqueous Phase): 7155.2 ppm and 7142.9 ppm and 7934.4 ppm | Partition Ratio (pygas/aqueous) (HTMPO): 0.079 ± 0.008 | [HTMPO] (ppm) in Undiluted Phase, Average (Pygas Phase): 582.8 ± 47.0 ppm | [HTMPO] (ppm) in Undiluted Phase (Pygas Phase, equal volumes de-ionized water and simulated pygas): 597.8 ppm and 530.2 ppm and 620.5 ppm

Source: patent publication US11174439B2, “Method to inhibit polymerization in a process water” (Ecolab USA, Inc., priority 2016, dated 2021)
